# Tests used:
# [1] = Worst-case calculation, Application 2 cheese packaging wrap exposure scenario; conditions: 100% migration, 2.0 g/m^2 dry film
# [2] = Worst-case calculation, Application 1 yoghurt pot lid exposure scenario; conditions: 100% migration, 2.0 g/m^2 dry film
# [3] = Specific migration limit (SML) from regulation or hazard assessment (TTC, VEGA QSAR, Cramer Class); conditions: source HA (internal hazard assessment), self-derived SML; EU Cube model
# [4] = Worst-case calculation (100% migration), standard EU Cube exposure model; conditions: 100% migration; for Worst-case calculation as a percentage of SML (or restriction), EU Cube: 2.0 g/m^2 dry film; for Worst Case Calculation of migration in EU Cube model (as a percentage of SML): dry coat weight 2.0 g/m^2
# [5] = substance in ink SBDEV977 (Ex. 4A Yellow)
# [6] = substance in ink SBDEV980 (Ex. 4B Red)
smiles,measurement,setting,value
"O=C1NCCN1 [0000120-93-4, 2-Imidazolidinone]","Worst-case calculation as a percentage of SML (or restriction), Application 2",[1]; product SBDEV976,23.0 percentage of SML (or restriction)
same,"Worst-case calculation as a percentage of SML (or restriction), Application 2",[1]; product SBDEV977,21.6 percentage of SML (or restriction)
same,"Worst-case calculation as a percentage of SML (or restriction), Application 2",[1]; product SBDEV979,21.6 percentage of SML (or restriction)
same,"Worst-case calculation as a percentage of SML (or restriction), Application 2",[1]; product SBDEV980,23.0 percentage of SML (or restriction)
same,"Worst-case calculation as a percentage of SML (or restriction), Application 2",[1]; product SBDEV1284,15.8 percentage of SML (or restriction)
same,"Worst-case calculation as a percentage of SML (or restriction), Application 2",[1]; product SBDEV1285,17.3 percentage of SML (or restriction)
same,"Worst-case calculation as a percentage of SML (or restriction), Application 2",[1]; product SBDEV1286,17.3 percentage of SML (or restriction)
same,"Worst-case calculation as a percentage of SML (or restriction), Application 2",[1]; product SBDEV1287,15.8 percentage of SML (or restriction)
same,"Worst-case calculation as a percentage of SML (or restriction), Application 1",[2]; product SBDEV976,6.3 percentage of SML (or restriction)
same,"Worst-case calculation as a percentage of SML (or restriction), Application 1",[2]; product SBDEV977,5.9 percentage of SML (or restriction)
same,"Worst-case calculation as a percentage of SML (or restriction), Application 1",[2]; product SBDEV979,5.9 percentage of SML (or restriction)
same,"Worst-case calculation as a percentage of SML (or restriction), Application 1",[2]; product SBDEV980,6.3 percentage of SML (or restriction)
same,"Worst-case calculation as a percentage of SML (or restriction), Application 1",[2]; product SBDEV1284,4.3 percentage of SML (or restriction)
same,"Worst-case calculation as a percentage of SML (or restriction), Application 1",[2]; product SBDEV1285,4.7 percentage of SML (or restriction)
same,"Worst-case calculation as a percentage of SML (or restriction), Application 1",[2]; product SBDEV1286,4.7 percentage of SML (or restriction)
same,"Worst-case calculation as a percentage of SML (or restriction), Application 1",[2]; product SBDEV1287,4.3 percentage of SML (or restriction)
same,SML or Restriction (mg substance/kg food),[3],4.98 mg substance/kg food
same,"Worst-case calculation as a percentage of SML (or restriction), EU Cube",[4]; product SBDEV976,16 percentage of SML (or restriction)
same,"Worst-case calculation as a percentage of SML (or restriction), EU Cube",[4]; product SBDEV977,15 percentage of SML (or restriction)
same,"Worst-case calculation as a percentage of SML (or restriction), EU Cube",[4]; product SBDEV979,15 percentage of SML (or restriction)
same,"Worst-case calculation as a percentage of SML (or restriction), EU Cube",[4]; product SBDEV980,16 percentage of SML (or restriction)
same,"Worst-case calculation as a percentage of SML (or restriction), EU Cube",[4]; product SBDEV1284,11 percentage of SML (or restriction)
same,"Worst-case calculation as a percentage of SML (or restriction), EU Cube",[4]; product SBDEV1285,12 percentage of SML (or restriction)
same,"Worst-case calculation as a percentage of SML (or restriction), EU Cube",[4]; product SBDEV1286,12 percentage of SML (or restriction)
same,"Worst-case calculation as a percentage of SML (or restriction), EU Cube",[4]; product SBDEV1287,11 percentage of SML (or restriction)
same,Worst Case Calculation of migration in EU Cube model (as a percentage of SML),[4]; substance in ink SBDEV976 (Ex. 4C Cyan),16 percentage of SML
same,Worst Case Calculation of migration in EU Cube model (as a percentage of SML),[4]; [5],15 percentage of SML
same,Worst Case Calculation of migration in EU Cube model (as a percentage of SML),[4]; substance in ink SBDEV979 (Ex. 4D Black),15 percentage of SML
same,Worst Case Calculation of migration in EU Cube model (as a percentage of SML),[4]; [6],16 percentage of SML
"CCCCCCCC/C=C\CCCCCCCC(=O)N(CCO)CCO [0000093-83-4, N,N-Bis(2-hydroxyethyl) oleamide]","Worst-case calculation as a percentage of SML (or restriction), Application 2",[1]; product SBDEV977,99.4 percentage of SML (or restriction)
same,"Worst-case calculation as a percentage of SML (or restriction), Application 2",[1]; product SBDEV1287,97.9 percentage of SML (or restriction)
same,"Worst-case calculation as a percentage of SML (or restriction), Application 1",[2]; product SBDEV977,27.1 percentage of SML (or restriction)
same,"Worst-case calculation as a percentage of SML (or restriction), Application 1",[2]; product SBDEV1287,26.7 percentage of SML (or restriction)
same,SML or Restriction (mg substance/kg food),[3],0.09 mg substance/kg food
same,"Worst-case calculation as a percentage of SML (or restriction), EU Cube",[4]; product SBDEV977,69 percentage of SML (or restriction)
same,"Worst-case calculation as a percentage of SML (or restriction), EU Cube",[4]; product SBDEV1287,68 percentage of SML (or restriction)
same,Worst Case Calculation of migration in EU Cube model (as a percentage of SML),[4]; [5],69 percentage of SML
"O=Cc1ccc(Cl)cc1 [0000104-88-1, 4-Chlorobenzaldehyde]","Worst-case calculation as a percentage of SML (or restriction), Application 2",[1]; product SBDEV980,20.2 percentage of SML (or restriction)
same,"Worst-case calculation as a percentage of SML (or restriction), Application 2",[1]; product SBDEV1285,20.2 percentage of SML (or restriction)
same,"Worst-case calculation as a percentage of SML (or restriction), Application 1",[2]; product SBDEV980,5.5 percentage of SML (or restriction)
same,"Worst-case calculation as a percentage of SML (or restriction), Application 1",[2]; product SBDEV1285,5.5 percentage of SML (or restriction)
same,SML or Restriction (mg substance/kg food),[3],0.09 mg substance/kg food
same,"Worst-case calculation as a percentage of SML (or restriction), EU Cube",[4]; product SBDEV980,14 percentage of SML (or restriction)
same,"Worst-case calculation as a percentage of SML (or restriction), EU Cube",[4]; product SBDEV1285,14 percentage of SML (or restriction)
same,Worst Case Calculation of migration in EU Cube model (as a percentage of SML),[4]; [6],14 percentage of SML

# Source: patent publication US11927585B2, “Solvent-based inks and coatings for food contact applications” (SUN CHEMICAL CORPORATION, priority 2020, dated 2024)
